Experimental data: ChEMBL document CHEMBL4732079, “Design, synthesis and antitumor evaluation of new 1,8-naphthalimide derivatives targeting nuclear DNA” (Eur J Med Chem, 2021)
Calls of active or inactive are those of the source. The rule behind the calls is not given here.

Columns and labels:
MGC-803 [1] = assay: Upregulation of p21 expression in human MGC-803 cells at 0.5 to 1 uM by Western blot analysis; type: functional, cell-based; settings: dose 0.5-1 µM
SK-OV-3 = assay: Antiproliferative activity against human SK-OV-3 cells by MTT assay; type: functional, cell-based
[2] = molecular target: T1, DNA topoisomerase 1 (Homo sapiens) (UniProt P11387); assay: Inhibition of topoisomerase 1 (unknown origin) using pBR322 DNA as substrate at 20 uM by gel electrophoresis
T1 sequence (whole entry): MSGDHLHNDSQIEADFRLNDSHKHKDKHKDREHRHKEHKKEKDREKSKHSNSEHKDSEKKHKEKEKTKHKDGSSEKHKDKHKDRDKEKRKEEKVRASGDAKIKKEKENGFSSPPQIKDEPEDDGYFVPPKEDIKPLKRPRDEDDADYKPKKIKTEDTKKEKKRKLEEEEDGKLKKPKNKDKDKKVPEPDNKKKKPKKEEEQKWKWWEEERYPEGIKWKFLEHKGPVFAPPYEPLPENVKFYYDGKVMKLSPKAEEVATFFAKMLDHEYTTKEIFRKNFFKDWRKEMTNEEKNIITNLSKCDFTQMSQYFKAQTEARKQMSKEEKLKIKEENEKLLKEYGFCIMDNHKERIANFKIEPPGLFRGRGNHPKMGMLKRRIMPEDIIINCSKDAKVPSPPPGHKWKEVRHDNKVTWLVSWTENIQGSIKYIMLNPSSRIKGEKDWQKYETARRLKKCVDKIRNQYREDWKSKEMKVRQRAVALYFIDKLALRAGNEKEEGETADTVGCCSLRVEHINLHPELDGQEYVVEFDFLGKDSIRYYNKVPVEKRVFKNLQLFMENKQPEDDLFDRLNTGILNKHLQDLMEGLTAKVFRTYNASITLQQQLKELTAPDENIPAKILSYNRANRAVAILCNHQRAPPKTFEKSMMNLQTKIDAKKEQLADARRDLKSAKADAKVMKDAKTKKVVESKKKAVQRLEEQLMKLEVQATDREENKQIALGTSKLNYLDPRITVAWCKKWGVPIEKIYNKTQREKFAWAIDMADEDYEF

MGC-803 [3] = assay: Induction of apoptosis in human MGC-803 cells assessed as increase in PARP expression at 0.5 to 1 uM by Western blot analysis; type: functional, cell-based; settings: dose 0.5-1 µM
MGC-803 [4] = assay: Induction of cell cycle arrest in human MGC-803 cells assessed as accumulation of cells at G1 phase at 0.25 uM for 24 hrs (reference value: 62.6%); type: functional
MGC-803 [5] = assay: Induction of apoptosis in human MGC-803 cells assessed as increase in caspase-9 expression at 0.5 to 1 uM by Western blot analysis; type: functional, cell-based; settings: dose 0.5-1 µM
MGC-803 [6] = assay: Induction of cell cycle arrest in human MGC-803 cells assessed as accumulation of cells at G1 phase at 0.5 uM for 24 hrs (reference value: 62.6%); type: functional
MGC-803 [7] = assay: Induction of apoptosis in human MGC-803 cells assessed as necrotic cells at 1 uM after 24 hrs (reference value: 0.9%); type: functional
MGC-803 [8] = assay: Induction of apoptosis in human MGC-803 cells assessed as increase in Bax expression at 0.5 to 1 uM by Western blot analysis; type: functional, cell-based; settings: dose 0.5-1 µM
MGC-803 [9] = assay: Induction of apoptosis in human MGC-803 cells assessed as late apoptotic cells at 1 uM after 24 hrs (reference value: 2.6%); type: functional
MGC-803 [10] = assay: Downregulation of cyclinE expression in human MGC-803 cells at 0.5 to 1 uM by Western blot analysis; type: functional, cell-based; settings: dose 0.5-1 µM
DNA [11] = assay: Induction of DNA damage in human MGC-803 cells assessed as increase in p-H2AX levels at 0.5 to 1 uM by Western blot analysis; type: cell-based; settings: dose 0.5-1 µM
MGC-803 [12] = assay: Induction of apoptosis in human MGC-803 cells assessed as necrotic cells at 2 uM after 24 hrs (reference value: 0.9%); type: functional
MGC-803 [13] = assay: Induction of apoptosis in human MGC-803 cells assessed as late apoptotic cells at 2 uM after 24 hrs (reference value: 2.6%); type: functional
MGC-803 [14] = assay: Induction of apoptosis in human MGC-803 cells assessed as viable cells at 2 uM after 24 hrs (reference value: 93.6%); type: functional; settings: read-out: Activity
DNA [15] = assay: Induction of DNA damage in human MGC-803 cells assessed as increase in Cdc25A levels at 0.5 to 1 uM by Western blot analysis; type: cell-based; settings: dose 0.5-1 µM
[16] = molecular target: T1, DNA topoisomerase 1 (Homo sapiens); assay: Inhibition of topoisomerase 1 (unknown origin) using pBR322 DNA as substrate at 10 uM by gel electrophoresis

Row | IC50 (SK-OV-3) | inhibition [2] | inhibition [16] | Structure (SMILES) | Activity (MGC-803 [1]) | Activity (MGC-803 [3]) | Activity (MGC-803 [4]) | Activity (MGC-803 [5]) | Activity (MGC-803 [6]) | Activity (MGC-803 [7]) | Activity (MGC-803 [8]) | Activity (MGC-803 [9]) | inhibition (MGC-803 [10]) | Activity (DNA [11]) | Activity (MGC-803 [12]) | Activity (MGC-803 [13]) | viability at 2 µM (MGC-803 [14]) | Activity (DNA [15])
1 | 320 nM | Active |  | Cc1ccc(S(=O)(=O)N2CCN(c3c([N+](=O)[O-])cc4c5c(cccc35)C(=O)N(CCN(C)C)C4=O)CC2)cc1 | Active | Active | 53.73% | Active | 55.85% | 4.2% | Active | 9.8% | Active | Active | 6.2% | 10.2% | 66.9% | Active
2 | 1880 nM |  | Active | CN(C)CCN1C(=O)c2cccc3c(N4CCN(C(=O)c5ccccc5)CC4)c([N+](=O)[O-])cc(c23)C1=O | Active | Active | 50.91% | Active | 27.88% | 4.7% | Active | 11.2% | Active | Active | 5.6% | 20.5% | 41.9% | Active
